This note sets out measurements from US6803195B1, “Facile detection of cancer and cancer risk based on level of coordination between alleles” (Ramot At Tel-Aviv University Ltd., priority 1999, dated 2004).

The test system of experiment [1] is PHA-stimulated lymphocytes of patients suffering from a hematological malignancy. Description: FISH replication assay, lymphocytes of hematological cancer patients grown with 5-azacytidine (Example 6). The note with it: for percentage of SD cells following exposure to AZA, mean value: patients' samples 1-15, 72 hours, mean ± standard deviation. Format: cell-based, human. On the procedure:
Each subject donated five ml of peripheral blood. Cell cultures of PHA-stimulated lymphocytes were set up according to standard protocol (Rooney and Czepulkowsli, 1992). Briefly, 0.5 ml of peripheral blood was introduced into a 15 ml test tube containing 5ml F-10 medium supplemented with 20% fetal calf serum, 0.2% heparin, 1% penicillin/streptomycin antibiotic solution (Biological industries, Israel) and 3% phytohemagglutinin (PHA). In addition, all the 15 samples derived from the hematological patients (samples 1-15) and 15 of the 41 samples derived from non-cancerous subjects (samples 16-30) were also grown in the presence of 10^−7M 5-azacytidine (AZA; Sigman, USA) added to the other ingredients described above.
After 72 hours at 37° C., colchicine (Sigma, USA) was added to each sample (final concentration of 5×10^−7M for one hour) followed by hypotonic treatment (0.075 M KC1 at 37° C. for 15 minutes) and four washes, each with a fresh cold (−20° C.) 3:1 solution of methanol: acetic acid. The cell suspensions were stored at −20° C. until used for FISH.
Six diverse loci were tested using directly labeled commercial probes obtained from Vysis: (i) the SNRPN probe (32-190004); (ii) the TP53 probe (32-190006); (iii) the AML1 probe (LSI 21; 32-190002); (iv) the RB1 probe (LSI 13; 32-190001); (v) the α-satellite probe specific for centromere 17 (32-130017, hereafter marked as CEN17); and (vi) the satellite III probe specific for centromere 15 (32-1300015, hereafter marked as CEN15). The SNRPN probe identifies the Prader-Willi/Angelman syndrome region on 15q11-13 and is the most well characterized imprinted region in man (Ozoelik et al 1992). The TP53 probe identifies the p53 gene mapped to […] and is a tumor suppressor gene whose deletion and/or inactivation is implicated in over 50% of all human tumors (Prokocimer et al 1998). The AML1 probe recognizes a gene mapped to chromosome 21q22, which is one of the most frequently translocated genes in human blood malignancy (Look 1997). […] It is located on chromosome 13q14, and encodes the retinoblastoma protein. Both centromere specific probes (CEN17 and CEN15) identify non-coding loci implicated with chromosomal segregation and stability and are usually used for the enumeration of chromosome 17 and 15, respectively. Also the AML1 and RB1 probes, although not identifying centromeric regions, were both approved by the FDA to replace centromere specific probes for the enumeration of chromosomes 21 and 13, respectively.
A standard protocol was followed, as recommended by Ingen Laboratories (currently Insitus Biotechnologies), with few minor changes. Probes were diluted in Ingen's DenHyb solutions D001 to 400 folds (CEN17 and CEN15) and in D003 to 100 fold (AML1; RB1) or 50 fold (TP53; SNRPN) instead of the hybridization solution supplied with the probe. Five μl of the probe solution was placed on the targeted area of the sample slides and covered with a 12 mm round silanized coverslip (Ingen laboratories, USA) at 76° C. and denatured for six minutes at that temperature. The slide-filled aluminum slide tray was then transferred into an HybBox (Ingen Laboratories, USA), covered and allowed to hybridize overnight in the box.
All samples obtained from the cancerous patients (samples 1-15) were analyzed with each of the six probes used, each in the absence as well as in the presence of AZA. Out of the non-cancerous samples grown without AZA 41 (samples 16-56) were analyzed with the AML1 and TP53 probes, 30 (samples 16-45) with the CEN17 probe and 15 (samples 16-30) with each of the other three probes (SNRPN, RB1 and CEN15).
Slides were analyzed blindly on an Olympus BH2 fluorescent microscope, using a triple band-pass filter (Chroma technology). For the replication assay (Boogs and Chinault, 1997) at least 100 cells, containing two well-defined hybridization signals were scored from each sample, for each probe and for each treatment, following one-color FISH. […]

Experiment [2] concerns CAD samples (hematological malignancy patients at diagnosis). Description: FISH replication assay, cultures of hematological malignancy patients (CAD) with chromatin modifiers (Example 10). Format: cell-based, human. The following applies: for frequency (%) of SD cells, Mean: CAD + AZA (10^-7M), N = 20. The text has this: Cultures were set up from 44 healthy individuals (hereafter called CON) and 20 hematological malignancy patients at diagnosis (hereafter termed CAD). For 20 of the CON samples and all of the CAD samples peripheral in addition to the setting up cultures in the regular growth medium, cultures were set up in medium containing 5-azacytidine (10^−7M; Sigma, USA; hereafter referred to as AZA) a demethylating agent. In addition, cultures from 6 CON and 10 CAD samples were set up in medium containing a deacetylating agents, either Trichostatin A (33 nM; Sigma, USA; hereafter referred to as TSA) or Sodium Butirate (1 nM; Sigma, USA; hereafter referred to as NB), two well described acetylating agents.
These samples were hybridized with two commercial probes: the AML1 probe (LSI 21, […]) and the α-satellite probe specific for centromere 17 (32-130017, hereafter marked as CEN17). The results are summarized in Table 1 giving the number of samples hybridized with each probe (N), Mean and standard deviation (stdev) as well as the p value obtained using two tailed student's t-test (Microsoft Office 98).

Take `Nc1ncn([C@@H]2O[C@H](CO)[C@@H](O)[C@H]2O)c(=O)n1` [AZA, 5-azacytidine]: the “percentage of SD cells following exposure to AZA, mean value” in experiment [1] (AML1 locus, 10^-7M AZA) is given as 25.3±3.7%; in experiment [1] (CEN15 locus, 10^-7M AZA), 21.9±2.3%; in experiment [1] (CEN17 locus, 10^-7M AZA) it was 22.7±3.4%; in experiment [1] (RB1 locus, 10^-7M AZA), 22.4±2.5%; in experiment [1] (TP53 locus, 10^-7M AZA) it was 21.7±4.4%. In experiment [1] (TP53, AML1, RB1, CEN17 and CEN15, patients' samples, 10^-7M AZA), the “percentage of SD cells following exposure to AZA, range” value is given as 15-28%. Moreover, the cancer-induced allele-specific replication result in experiment [1] (all five loci tested (TP53, RB1, AML1, satellited sequences of chromosomes 15 and 17), blood cells of hematological patients) is given as “reversed to the normal”. Further, the “combined SD frequency (mean of TP53, AML1, RB1, CEN17 and CEN15) per sample, range” value in experiment [1] (patients' samples exposed to AZA) is given as 19.8-26.2%. Also, the “frequency (%) of SD cells, Mean” value is “Mean = 25.3%” in experiment [2] (AML1 locus) and “Mean = 22.7%” in experiment [2] (CEN17 locus). Besides, the “replication pattern in cells derived from cancer patients” value in experiment [2] (cultured cells with chromatin modifier) is “attenuate the replication pattern presented in cells derived from cancer patients towards the normal”.
